Measured values: patent US8143226B2, “Tyrosine kinase receptor antagonists and methods of treatment for breast cancer” (The Regents of the University of California, priority 2005, dated 2012)
Where two headings read alike, the source gives them in different places.

How the values were obtained:
HER2/neu [1] = biological target: T1, HER2/neu (Rattus norvegicus, UniProt P06494); test: HER2/neu autophosphorylation in MCNeuA cells (western blot); assay type: cell-based, mouse; conditions: read-out: IC50, ligand-independent tyrosine phosphorylation of HER2/neu
T1 construct: expressed in transfected cells; host or cells: MCNeuA mouse mammary carcinoma cells (MMTV/neu transgene), in culture or grown as tumours in neuTg mice
T1 sequence (P06494 23-1257): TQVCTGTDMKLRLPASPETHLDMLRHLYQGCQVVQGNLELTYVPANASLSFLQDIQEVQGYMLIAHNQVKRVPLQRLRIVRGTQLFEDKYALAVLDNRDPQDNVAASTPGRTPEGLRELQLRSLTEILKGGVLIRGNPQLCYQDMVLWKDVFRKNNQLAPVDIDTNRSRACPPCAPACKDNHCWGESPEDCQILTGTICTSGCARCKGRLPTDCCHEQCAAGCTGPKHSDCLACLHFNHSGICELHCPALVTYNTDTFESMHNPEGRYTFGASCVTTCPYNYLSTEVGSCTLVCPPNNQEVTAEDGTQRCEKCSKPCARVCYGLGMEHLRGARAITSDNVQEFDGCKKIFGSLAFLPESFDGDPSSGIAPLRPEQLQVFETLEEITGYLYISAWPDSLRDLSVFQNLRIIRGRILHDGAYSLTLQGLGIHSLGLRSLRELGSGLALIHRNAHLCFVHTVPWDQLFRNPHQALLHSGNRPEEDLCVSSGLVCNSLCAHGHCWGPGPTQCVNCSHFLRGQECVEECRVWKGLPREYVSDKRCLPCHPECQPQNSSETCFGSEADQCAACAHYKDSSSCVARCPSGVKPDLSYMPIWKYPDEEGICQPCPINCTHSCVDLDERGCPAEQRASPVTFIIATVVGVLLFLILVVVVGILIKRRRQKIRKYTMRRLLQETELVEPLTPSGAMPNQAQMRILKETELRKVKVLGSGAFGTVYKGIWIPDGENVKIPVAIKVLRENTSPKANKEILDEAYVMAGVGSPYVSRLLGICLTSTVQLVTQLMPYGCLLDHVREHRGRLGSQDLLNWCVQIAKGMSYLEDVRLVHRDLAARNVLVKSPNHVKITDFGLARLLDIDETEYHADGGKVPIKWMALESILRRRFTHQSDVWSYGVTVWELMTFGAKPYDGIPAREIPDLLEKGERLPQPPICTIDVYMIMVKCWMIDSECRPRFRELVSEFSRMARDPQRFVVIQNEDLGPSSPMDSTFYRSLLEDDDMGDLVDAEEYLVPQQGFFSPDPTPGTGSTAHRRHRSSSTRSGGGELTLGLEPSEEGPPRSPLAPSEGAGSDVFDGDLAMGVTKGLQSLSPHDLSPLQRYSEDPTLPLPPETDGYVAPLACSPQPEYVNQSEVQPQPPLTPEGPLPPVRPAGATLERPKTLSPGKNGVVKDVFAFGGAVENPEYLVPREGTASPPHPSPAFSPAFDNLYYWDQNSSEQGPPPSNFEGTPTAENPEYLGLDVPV
Procedure: HER2/neu receptor autophosphorylation was determined in serum-starved MCNeuA or SKBR3 cells, which were collected in the basal state, due to the ligand-independent nature of HER2/neu activation. Following a one-hour incubation in serum-free media, soluble extracts of cells were prepared as above. HER2/neu autophosphorylation was determined by a western blot that employed a phosphospecific antibody, pNeu(Tyr1248) as described above.

HER2/neu [2] = biological target: T1, HER2/neu; test: HER2/neu phosphorylation in excised MCNeuA tumors (western blot); assay type: in vivo, mouse; conditions: 37.5 mg/kg i.p. three times a week, 16 hours after final dose, vs vehicle
Procedure: Tumors were homogenized in 50 mM HEPES, pH 7.6, 150 mM NaCl, 1 mM PMSF, 2 μM leupeptin, 2 μM Pepstatin A, and 2 mM Na3VO4, and solubilized by the addition of 1% Triton x-100. Soluble lysates were prepared as described for cell culture studies. Tyrosine phosphorylation of IGF-1R was determined by ELISA as described for MCF-7 cells. Phosphorylation of HER2/neu was determined by western blot employing the phospho-specific antibody as in the cell culture studies. The degree of phosphorylation for each receptor was normalized to total receptor protein content in the tumor samples as determined by western blotting with antibodies against the human IGF-1R and the rodent HER2/neu.

MCF-7/HER2-18 cells [3] = test: Growth of MCF-7/HER2-18 cells with RTK inhibitors, 6 days (CyQuant); assay type: cell-based, human; conditions: read-out: one half maximal effect on growth
Procedure: MCF-7/neo or MCF-7/HER2-18 cells were plated in 96 well plates (4×10^3 cells/well) in 100 μl/well of DMEM-10 medium. […] Media with inhibitors was refreshed on day 3 and the cultures were harvested on day 6. The plates were inverted onto paper towels with gentle blotting to remove growth medium without disrupting adherent cells. Each plate was kept at −80° C. until assayed for cell growth. After thawing the plate at room temperature, 200 μl of CyQuant GR solution was added to each well and the plates were incubated in the dark for five minutes. Fluorescence was measured with a SpectraMax Gemini XS fluorescence microplate reader (Molecular Devices) with 480-nm excitation and 520-nm emission.

MCF-7/HER2-18 cells [4] = test: Tamoxifen and/or NDGA growth inhibition of MCF-7/HER2-18 cells (CyQuant); assay type: cell-based; conditions: Homo sapiens
Procedure: Cells were estrogen-starved for three days in DMEM containing 10% charcoal-[…]-stripped FCS (CDSS) prior to their plating in 96 well plates. Cells were plated in 100 μl of the same media, allowed to adhere overnight, and then were switched to DMEM+10% CDSS supplemented with 100 pM estrogen. […] The media and inhibitors were refreshed on day 3, the cultures were harvested on day 6, and a CyQuant assay was performed as described above.

IGF-1 = IGF-1 activation in pancreatic cancer cells; assay type: cell-based
[5] = single injection, mouse, intravenous; cited from earlier work
IGF-1R [6] = biological target: T2, IGF-1R (Homo sapiens, UniProt P08069); test: IGF-1R phosphorylation ELISA in MCF-7/HER2-18 cells; assay type: cell-based; design: endogenous in cells; host or cells: MCF-7/HER2-18; conditions: 3 nM IGF-I 10 min
T2 sequence (P08069 31-1367): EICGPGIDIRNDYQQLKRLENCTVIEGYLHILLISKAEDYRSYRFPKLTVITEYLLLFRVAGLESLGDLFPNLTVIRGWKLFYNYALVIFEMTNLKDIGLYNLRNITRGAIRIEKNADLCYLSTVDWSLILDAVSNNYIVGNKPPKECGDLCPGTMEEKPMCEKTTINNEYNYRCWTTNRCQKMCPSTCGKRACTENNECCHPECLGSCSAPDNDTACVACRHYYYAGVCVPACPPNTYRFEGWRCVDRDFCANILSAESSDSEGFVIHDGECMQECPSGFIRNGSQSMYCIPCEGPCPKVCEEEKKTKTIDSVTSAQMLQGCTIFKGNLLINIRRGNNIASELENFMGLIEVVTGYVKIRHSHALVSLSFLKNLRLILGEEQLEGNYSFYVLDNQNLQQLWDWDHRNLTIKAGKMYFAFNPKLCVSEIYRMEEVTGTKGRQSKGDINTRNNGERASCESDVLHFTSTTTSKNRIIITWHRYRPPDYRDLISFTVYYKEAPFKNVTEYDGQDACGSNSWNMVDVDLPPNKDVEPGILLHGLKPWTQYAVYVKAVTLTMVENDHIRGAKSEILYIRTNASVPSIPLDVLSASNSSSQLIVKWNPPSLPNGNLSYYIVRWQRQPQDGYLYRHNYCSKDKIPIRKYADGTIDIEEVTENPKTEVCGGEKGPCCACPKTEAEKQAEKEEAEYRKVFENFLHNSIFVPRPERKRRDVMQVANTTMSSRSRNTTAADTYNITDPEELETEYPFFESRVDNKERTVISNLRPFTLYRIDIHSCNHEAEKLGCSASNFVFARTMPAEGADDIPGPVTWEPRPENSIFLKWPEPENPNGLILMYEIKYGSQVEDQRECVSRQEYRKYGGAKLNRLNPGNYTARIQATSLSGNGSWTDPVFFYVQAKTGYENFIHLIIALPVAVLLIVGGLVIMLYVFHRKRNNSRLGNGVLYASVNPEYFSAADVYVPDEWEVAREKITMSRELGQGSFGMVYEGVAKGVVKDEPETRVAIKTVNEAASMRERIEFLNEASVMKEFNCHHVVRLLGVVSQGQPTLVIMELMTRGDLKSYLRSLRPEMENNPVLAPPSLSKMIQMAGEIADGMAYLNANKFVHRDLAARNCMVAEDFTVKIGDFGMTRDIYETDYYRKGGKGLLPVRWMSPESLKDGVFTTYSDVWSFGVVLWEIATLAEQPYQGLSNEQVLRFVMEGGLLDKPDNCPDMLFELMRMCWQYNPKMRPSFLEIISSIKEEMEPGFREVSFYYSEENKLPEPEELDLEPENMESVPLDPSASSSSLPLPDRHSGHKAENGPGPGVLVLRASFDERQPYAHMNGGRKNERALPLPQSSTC
Procedure: RTK inhibitors were dissolved in DMSO and diluted with culture medium before being added to cells for 1.5 hour at 37° C. The final concentration of DMSO during the incubation was 0.3% . For some studies, cells were also stimulated with 3 nM IGF-I for 10 minutes at 37° C. Reactions were terminated by rapidly aspirating medium and washing cells three times with ice cold PBS. Cells were harvested and solubilized in 50 mM HEPES, 150 mM NaCl, 1% Triton X-100, 1 mM PMSF, and 2 mM vanadate for 1 hour at 4° C. Protein concentrations were determined by BCA assay (Pierce, Rockford, Ill.). […] Briefly, 10 μg lysate protein were added to triplicate wells in a 96-well plate coated with monoclonal antibody to the IGF-IR (IR3; 2 μg/ml), and incubated for 18 hours at 4° C. Plates were washed five times and then HRP-conjugated anti-phosphotyrosine antibody (0.3 μg/ml), diluted in Solution B (50 mM HEPES, pH 7.6, 150 mM NaCl, 0.05% Tween-20, 1 mM PMSF, 2 mM vanadate and 1 mg/ml bacitracin), was added for two hours at 22° C. Plates were washed five times prior to color development with TMB substrate, which was terminated with 1.0 M H3PO4. Values for receptor phosphorylation were determined by measuring absorbance at 450 nm.

IGF-1R [7] = biological target: T2, IGF-1R; test: Tyrosine kinase activity of partially purified IGF-1R on poly Glu4:Tyr1 (ELISA); assay type: biochemical; design: made in house; host or cells: CHO cells (CHOIGF-1R / CHO-IGFR), partially purified by wheat germ agglutinin chromatography
Procedure: IGF-1 and HER2/neu receptors were partially purified by WGA chromatography of cells overexpressing the protein of interest. To isolate IGF-1R, CHO cells transfected with and overexpressing the human IGF-1R (CHOIGF-1R) were plated in T-150 flasks and grown in DMEM supplemented with 10% fetal calf serum (FCS) until 80% confluent. Cells were harvested in the basal state and solubilized in 50 mM HEPES, 10% glycerol, 1% Triton X-100, 150 mM NaCl, 5 μM EGTA, 0.24 mg/ml aminoethyl-benzensulfonyl fluoride (AEBSF), 10 μg/ml aprotinin, 25 mM benzamidine, 10 μg soybean trypsin inhibitor, and 5 μg/ml leuptin for one hour at 4° C. Samples were centrifuged for 60 minutes at 100,000 g and solubilized extract collected. Rodent HER2/neu receptors were collected from MCNeuA cells crown under identical conditions and processed similarly. Lysates from both cell lines were loaded onto a 1 ml wheat germ agglutin (WGA) column (Pharmacia, Piscataway, N.J.), washed with WGA buffer (50 mM HEPES pH 7.6, 150 mM NaCl, 0.1% Triton X-100, 1 mg/ml bacitracin, and 1 mM PMSF). Receptors were then eluted with WGA buffer supplemented with 0.3 N N-Acetyl-D-glucosamine. WGA fractions containing RTK of interest were determined by SDS page and a western blot that employed antibodies against either the IGF-1R or HER2/neu as appropriate. […]

With CC(Cc1ccc(O)c(O)c1)C(C)Cc1ccc(O)c(O)c1 (centres unmarked) [NDGA, nordihydroguaiaretic acid] the IC50 (HER2/neu [1]) was 15 ± 4 µM, the “HER2/neu receptor autophosphorylation in tumors” value (HER2/neu [2]) was “reduced” and the IC50 (MCF-7/HER2-18 cells [3]; Homo sapiens, 144 h) was 12.5 µM. It also gave an IC50 (MCF-7/HER2-18 cells [3]) of 10 to 20 µM, an inhibition at 10 µM (MCF-7/HER2-18 cells [4]) of 9% and an inhibition at 15 µM (MCF-7/HER2-18 cells [4]) of 38%. The IGF-1 activation (IGF-1) was “inhibiting”, the terminal half-life [5] was 2.25 h and the “IGF-1 stimulated phosphorylation of the IGF-1R” value (IGF-1R [6]) was “strongly inhibited”. The “lowest concentration reducing IGF-1 stimulated tyrosine phosphorylation of poly Glu4:Tyr1” value (IGF-1R [7]; NDGA 20 minutes prior to 10 nM IGF-1) was 0.3 µM and the “concentration inhibiting IGF-1-stimulated tyrosine kinase activity of isolated IGF-1R” value (IGF-1R [7]; summary statement) was no more than 10 µM.
